In ChEMBL document CHEMBL3044707, “Synthesis of some new glutamine linked 2,3-disubstituted quinazolinone derivatives as potent antimicrobial and antioxidant agents” (Med Chem Res, 2013):
Converted amounts (≈) assume the structure as drawn.

Key:
Format in all cases: functional
[1] = test system: Radical scavenging activity; test: Antioxidant activity assessed as DPPH radical scavenging activity by visible spectrophotometric analysis
Aspergillus flavus [2] = test: Antimicrobial activity against Aspergillus flavus NCIM 524 assessed as diameter of growth inhibition zone at 100 ug/ml after 48 hr by paper disk diffusion method; conditions: NCIM 524, 48 h, read-out: DIZ
Bacillus subtilis [3] = test: Antimicrobial activity against Bacillus subtilis NCIM 2999 assessed as diameter of growth inhibition zone at 100 ug/ml after 24 hr by paper disk diffusion method; conditions: NCIM 2999, 24 h, read-out: DIZ
Escherichia coli [4] = test: Antimicrobial activity against Escherichia coli NCIM 2574 assessed as diameter of growth inhibition zone at 100 ug/ml after 24 hr by paper disk diffusion method; conditions: NCIM 2574, 24 h, read-out: DIZ
Pseudomonas aeruginosa [5] = test: Antimicrobial activity against Pseudomonas aeruginosa NCIM 5029 assessed as diameter of growth inhibition zone at 100 ug/ml after 24 hr by paper disk diffusion method; conditions: NCIM 5029, 24 h, read-out: DIZ
Staphylococcus aureus [6] = test: Antimicrobial activity against Staphylococcus aureus NCIM 5021 assessed as diameter of growth inhibition zone at 100 ug/ml after 24 hr by paper disk diffusion method; conditions: NCIM 5021, 24 h, read-out: DIZ
Candida albicans [7] = test: Antimicrobial activity against Candida albicans NCIM 3102 assessed as diameter of growth inhibition zone at 100 ug/ml after 48 hr by paper disk diffusion method; conditions: NCIM 3102, 48 h, read-out: DIZ
Bacillus subtilis [8] = test: Antimicrobial activity against Bacillus subtilis NCIM 2999 assessed as growth inhibition by agar streak dilution method
Escherichia coli [9] = test: Antimicrobial activity against Escherichia coli NCIM 2574 assessed as growth inhibition by agar streak dilution method
Pseudomonas aeruginosa [10] = test: Antimicrobial activity against Pseudomonas aeruginosa NCIM 5029 assessed as growth inhibition by agar streak dilution method
Staphylococcus aureus [11] = test: Antimicrobial activity against Staphylococcus aureus NCIM 5021 assessed as growth inhibition by agar streak dilution method
[12] = Antioxidant activity assessed as inhibition of xanthine-xanthine oxidase generated superoxide anion radical-mediated NBT reduction by spectrophotometric analysis
[13] = Antioxidant activity assessed as inhibition of NO radical production from sodium nitroprusside after 150 min by Griess reagent analysis
[14] = Antioxidant activity assessed as inhibition of Fe3+/ascorbic acid-induced hydroxyl radical production-mediated 2-deoxyribose degradation after 1 hr
Aspergillus flavus [15] = test: Antimicrobial activity against Aspergillus flavus NCIM 524 assessed as growth inhibition by agar streak dilution method
Candida albicans [16] = test: Antimicrobial activity against Candida albicans NCIM 3102 assessed as growth inhibition by agar streak dilution method
Aspergillus flavus [17] = test: Antimicrobial activity against Aspergillus flavus NCIM 524 assessed as diameter of growth inhibition zone at 10 ug/disk after 48 hr by paper disk diffusion method; conditions: NCIM 524, 48 h, read-out: DIZ
Candida albicans [18] = test: Antimicrobial activity against Candida albicans NCIM 3102 assessed as diameter of growth inhibition zone at 10 ug/disk after 48 hr by paper disk diffusion method; conditions: NCIM 3102, 48 h, read-out: DIZ

Compound | IC50 [1] [µg/mL] | zone of inhibition at 100 µg/mL (Aspergillus flavus [2]) [mm] | zone of inhibition at 100 µg/mL (Bacillus subtilis [3]) [mm] | zone of inhibition at 100 µg/mL (Escherichia coli [4]) [mm] | zone of inhibition at 100 µg/mL (Pseudomonas aeruginosa [5]) [mm] | zone of inhibition at 100 µg/mL (Staphylococcus aureus [6]) [mm] | zone of inhibition at 100 µg/mL (Candida albicans [7]) [mm] | MIC (Bacillus subtilis [8]) [µg/mL] | MIC (Escherichia coli [9]) [µg/mL] | MIC (Pseudomonas aeruginosa [10]) [µg/mL] | MIC (Staphylococcus aureus [11]) [µg/mL] | IC50 [12] [µg/mL] | IC50 [13] [µg/mL] | IC50 [14] [µg/mL] | MIC (Aspergillus flavus [15]) [µg/mL] | MIC (Candida albicans [16]) [µg/mL] | zone of inhibition at 10 µg/disc (Aspergillus flavus [17]) [mm] | zone of inhibition at 10 µg/disc (Candida albicans [18]) [mm]
O=C1O[C@H]([C@@H](O)CO)C(O)=C1O [ASCORBIC ACID] | 12.6 (≈ 71.5 µM) | – | – | – | – | – | – | – | – | – | – | – | – | – | – | – | – | –
NC(CCC(=O)n1c(Cc2ccccc2)nc2ccccc2c1=O)C(=O)O (centres undefined) | 26.6 (≈ 72.8 µM) | 10.2 | 7 | 11 | 11 | 10 | 14 | 50 (≈ 137 µM) | > 100 | > 100 | 50 (≈ 137 µM) | 31.6 (≈ 86.5 µM) | 36.2 (≈ 99.1 µM) | 29.8 (≈ 81.6 µM) | 75 (≈ 205 µM) | 100 (≈ 274 µM) | – | –
NC(CCC(=O)n1c(-c2ccc(O)cc2)nc2ccccc2c1=O)C(=O)O (centres undefined) | 14.3 (≈ 38.9 µM) | 15 | 9 | 15 | 13 | 13 | 9 | 25 (≈ 68.1 µM) | 50 (≈ 136 µM) | 50 (≈ 136 µM) | 25 (≈ 68.1 µM) | 15.2 (≈ 41.4 µM) | 15.2 (≈ 41.4 µM) | 17.8 (≈ 48.5 µM) | 40 (≈ 109 µM) | 40 (≈ 109 µM) | – | –
NC(CCC(=O)n1c(-c2ccc(Cl)cc2)nc2ccccc2c1=O)C(=O)O (centres undefined) | 37.1 (≈ 96.2 µM) | 12.1 | 12.7 | 11.5 | 12 | 13 | 13.6 | 11.2 (≈ 29 µM) | 15 (≈ 38.9 µM) | 15 (≈ 38.9 µM) | 10 (≈ 25.9 µM) | 41.8 (≈ 108 µM) | 41.8 (≈ 108 µM) | 49 (≈ 127 µM) | 15 (≈ 38.9 µM) | 12 (≈ 31.1 µM) | – | –
COc1ccc(-c2nc3ccccc3c(=O)n2C(=O)CCC(N)C(=O)O)cc1 (centres undefined) | 18.4 (≈ 48.2 µM) | 14 | 10 | 11 | 13 | 14 | 10 | 50 (≈ 131 µM) | 20 (≈ 52.4 µM) | 25 (≈ 65.6 µM) | 30 (≈ 78.7 µM) | 20.1 (≈ 52.7 µM) | 20.1 (≈ 52.7 µM) | 23.4 (≈ 61.4 µM) | 15 (≈ 39.3 µM) | 25 (≈ 65.6 µM) | – | –
Nc1ccc(-c2nc3ccccc3c(=O)n2C(=O)CCC(N)C(=O)O)cc1 (centres undefined) | 17.5 (≈ 47.8 µM) | 11 | 13 | 15 | 16 | 10 | 12.5 | 30 (≈ 81.9 µM) | 50 (≈ 136 µM) | 50 (≈ 136 µM) | 25 (≈ 68.2 µM) | – | 19.4 (≈ 53 µM) | 18 (≈ 49.1 µM) | 50 (≈ 136 µM) | 50 (≈ 136 µM) | – | –
OC(Cn1cncn1)(Cn1cncn1)c1ccc(F)cc1F [FLUCONAZOLE] | – | – | – | – | – | – | – | – | – | – | – | – | – | – | 5 (≈ 16.3 µM) | 5 (≈ 16.3 µM) | 19 | 16
